Assay results published in PMC11653251 (2024).

Legend:
[1] = tested on: (GC)6 (DNA, duplex) GCGCGCGCGCGC; assay: UV-vis absorption titration, Bard fit; conditions: K+ (50 mM potassium phosphate), complex 10 μM, average of two titrations, [DNA] per nucleobase (stated for st-DNA)
[2] = tested on: (AT)6 (DNA, duplex) ATATATATATAT; assay: UV-vis absorption titration, Bard fit; conditions: K+ (50 mM potassium phosphate), complex 10 μM, average of two titrations, [DNA] per nucleobase (stated for st-DNA)

Row | Kb [1] | Kb [2] | Structure (SMILES)
1 | 1.17 ± 0.53 × 10^6 M^-1 | 1.13 ± 0.24 × 10^6 M^-1 | Cc1cnc2c(ccc3c(C)c(C)cnc32)c1C.Cc1cnc2c(ccc3c(C)c(C)cnc32)c1C.[Cr+3].c1ccc2cc3nc4c5cccnc5c5ncccc5c4nc3cc2c1 [Δ-1]
2 | 2.39 ± 0.32 × 10^6 M^-1 | 11.8 ± 0.35 × 10^6 M^-1 | Cc1cnc2c(ccc3c(C)c(C)cnc32)c1C.Cc1cnc2c(ccc3c(C)c(C)cnc32)c1C.[Cr+3].c1ccc2cc3nc4c5cccnc5c5ncccc5c4nc3cc2c1 [Λ-1]
